Assay: Body weight change in dexamethasone muscle atrophy mouse model
Type: in vivo, C57BL/6 mice
Details: DEX group: dexamethasone 10 mg/kg/day i.p. 4 weeks, olive oil orally; at sacrifice
Description: Specifically, three-week-old male C57BL/6 mice were provided with free access to water and food and were acclimated under conditions of 23±2° C., relative humidity of 50±5%, and a 12-hour light/dark cycle. […] In the untreated group, an equivalent volume of saline was administered intraperitoneally. Body weight and food intake were evaluated daily. The experiment was conducted with the approval of the Pukyong National University Animal Care and Use Committee, in accordance with Pukyong National University's animal experiment ethics regulations.

## C[C@@H]1C[C@H]2[C@@H]3CCC4=CC(=O)C=C[C@]4(C)[C@@]3(F)[C@@H](O)C[C@]2(C)[C@@]1(O)C(=O)CO [DEX, dexamethasone]
  Body weight (g) Sacrifice [B]: 27.9 ± 3.25 g
